Earlier results in patent publication US11577235B1, “Layered catalyst reactor systems and processes for hydrotreatment of hydrocarbon feedstocks” (Chevron U.S.A. Inc., priority 2021, dated 2023).

Tested on: rats
Conditions: single oral dose to rats

Compound	LD50 [mg/kg]
O=CC(=O)O [glyoxylic]	3000
thio-diglycolic acid	500
